Reference: PMC9088798, “An Approach to Derive Functional Peptide Inhibitors of Transcription Factor Activity” (JACS Au, 2022)

Tests used:
[1] = target: T1, cJun bZIP/TRE DNA interaction (Homo sapiens, UniProt P05412); test: EMSA, antagonism of cJun/TRE DNA interaction; assay type: biochemical; conditions: cJun bZIP 20 μM, TRE DNA 2 μM, free DNA band intensity, 4°C 30 minutes, pH 8, 1.3% agarose gel; Hill equation; three independent experiments, one SD
T1 construct: The human cJun bZIP domain spans from Arg252 to Leu308; His-SUMO (N, cleaved yes); AS cap (two residues Ala-Ser) (N); GAP cap (three residues Gly-Ala-Pro) (C); made in house; host or cells: E. coli (pET21-His-SUMO plasmid)
Description: Figure 6 HingeW antagonizes cJun/TRE DNA interaction more effectively than A-FosW. (A) CD spectra showing a shift in the TRE DNA peak at ∼281 nm upon addition of cJun, which is reversed by the titration of HingeW into the sample, as HingeW sequesters the cJun in a nonfunctional heterodimer. […] EMSA showing the (C) unbound TRE DNA band shift upon addition of cJun and the subsequent restoration of the unbound DNA band intensity upon titration of either (D) HingeW or (E) A-FosW. (F). For both CD and EMSA, data was averaged from three independent experiments and the plotted error bars indicate one standard deviation.
To provide further evidence of functional antagonism, an electrophoretic mobility shift assay (EMSA) was employed. […] No bound cJun/TRE DNA band was observed as the overall charge of this complex prohibited entry into the gel. Antagonism was therefore best observed by monitoring the intensity of the free DNA band. […]
Control experiments involved the injection of the antagonist peptide sample into the cell containing ITC buffer alone to determine the heat of dilution which was subtracted. The resulting binding data were fit to a one site binding model to extract the enthalpy change of binding (ΔH) and the equilibrium binding constant (K D), from which the free energy change of binding (ΔG) and the entropy change of binding (ΔS) was calculated (41). […]

TRE DNA [2] = test: CD TRE DNA peak, binding of cJun to TRE DNA; conditions: cJun 20 μM, TRE DNA 5 μM, ~281 nm
Procedure: The binding of cJun to TRE DNA can be observed by monitoring a DNA absorbance peak in the CD spectrum centered at ∼281 nm.[44] […] The addition of cJun (20 μM) to TRE DNA (5 μM) decreases this DNA peak by 55% as the cJun engages its target TRE site and alters the DNA structure (Figure 6A). Subsequent titration of HingeW into this bound cJun/TRE DNA mixture reverses the peak shift, with the peak increasing as DNA is released. […]
µM) alongside ampicillin, kanamycin and chloramphenicol to maintain the required plasmids, and IPTG (1 mM) to induce protein expression. The library transformants were […]
however a lower stringency is used initially before selection is increased in later steps.
Colonies from this first round of selection were pooled and serially grown in liquid culture at starting OD600 of 0.05 and grown at 37°C with shaking at 200 rpm until the OD600 […]
increased to the optimum 4 µM in subsequent passages. Bacteria containing the most effective functional antagonists were expected to produce higher levels of TRE-mDHFR which provides a growth advantage, and these will dominate the culture. […] This allows the occurrence of library members to be monitored as winner sequences are selected for. […]

TRE DNA [3] = test: EMSA, binding of cJun bZIP to TRE DNA; conditions: cJun bZIP 20 μM, TRE DNA 2 μM, relative to DNA alone
Procedure: To provide further evidence of functional antagonism, an electrophoretic mobility shift assay (EMSA) was employed. […] No bound cJun/TRE DNA band was observed as the overall charge of this complex prohibited entry into the gel. Antagonism was therefore best observed by monitoring the intensity of the free DNA band.
Isothermal Titration Calorimetry (ITC): Peptides were studied in an ITC buffer consisting of 10 mM potassium phosphate, 150 mM potassium fluoride and 5 mM TCEP at pH 7.4. Using a MicroCal VP-ITC instrument (Malvern), 10 µL injections of antagonist peptide (HingeW or A-FosW) at 10 µM were injected into the cell containing cJun at 1 µM.
MicroCal Origin software was used to record and analyse the heat change upon addition.
Control experiments involved the injection of the antagonist peptide sample into the cell containing ITC buffer alone to determine the heat of dilution which was subtracted. The resulting binding data were fit to a one site binding model to extract the enthalpy change of binding (ΔH) and the equilibrium binding constant (K D), from which the free energy change of binding (ΔG) and the entropy change of binding (ΔS) was calculated (41).
Thermodynamic parameters are presented as an average of two independent experiments with errors given as one standard deviation. […]

T1 sequence (P05412 252-308): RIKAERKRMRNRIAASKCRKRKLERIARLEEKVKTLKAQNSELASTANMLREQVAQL

Row | IC50 [1] | Substance | decrease of TRE DNA CD peak upon addition of cJun (TRE DNA [2]) | free DNA band intensity on adding cJun bZIP (TRE DNA [3])
1 | 12.1 ± 1.9 µM | LEQRAEELARENEELEKEAEELEQELDELQAEIEQLEERNYALRKEIEDLQKQLEKL [A-FosW, N-terminal AS and C-terminal GAP caps, 6xHis-tagged] | – | –
2 | – | cJun bZIP: human cJun bZIP domain, Arg252 to Leu308 (target protein) | 55% | significant reduction in the free DNA band intensity
